Assay results taken from the supplement of paper PMC10627819.

How the values were obtained:
S. aureus DSM 20231 [1] = test: fitness (endpoint OD595 vs no drug) (fraction); higher = more growth
How it was run: (§1)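 Volumes were 30 µl per well, or 55 µl for S. pneumoniae, in 384-well plates inoculated at OD595 0.01. Media were TSB, LB Lennox or CY at 37 °C, and OD595 was read every 30 min for 14 h with first-reading background subtraction. Fitness is the ratio of optical density at stationary-phase entry to the robust mean of no-drug controls. That ratio is capped at 1.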

S. aureus Newman [2] = test: as above
How it was run: as §1

S. aureus DSM 20231 [3] = test: Bliss interaction score (quartile over a dose matrix) (fitness difference); higher = more antagonism (negative = synergy)
How it was run: (§2)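 Each plate was normalised to the robust mean of its own no-drug wells, using OD595 at entry into stationary phase, with values capped at 1. This normalised growth is the fitness value. The Bliss score is the difference between observed and product-expected fitness, with single-drug fitness inferred from the combination data and quartiles taken over technical, biological and donor/recipient replicates.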

S. pneumoniae D39V = test: as above
How it was run: as §2

B. subtilis 168 [4] = test: as above
How it was run: as §2

S. aureus Newman [5] = test: as above
How it was run: as §2

B. subtilis 168 [6] = test: fitness (endpoint OD595 vs no drug) (fraction); higher = more growth
How it was run: as §1
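For Bliss interaction score (quartile over a dose matrix) in this document: first quartile when negative (synergy) and third quartile when positive (antagonism).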

CC[C@H]1OC(=O)[C@H](C)[C@@H](O[C@H]2C[C@@](C)(OC)[C@@H](O)[C@H](C)O2)[C@H](C)[C@@H](O[C@@H]2O[C@H](C)C[C@H](N(C)C)[C@H]2O)[C@](C)(O)C[C@@H](C)CN(C)[C@H](C)[C@@H](O)[C@]1(C)O [Azithromycin] + CN[C@H](CC(C)C)C(=O)N[C@H]1C(=O)N[C@@H](CC(N)=O)C(=O)N[C@H]2C(=O)N[C@H]3C(=O)N[C@H](C(=O)N[C@H](C(=O)O)c4cc(O)cc(O)c4-c4cc3ccc4O)[C@H](O)c3ccc(c(Cl)c3)Oc3cc2cc(c3O[C@@H]2O[C@H](CO)[C@@H](O)[C@H](O)[C@H]2O[C@H]2C[C@](C)(N)[C@H](O)[C@H](C)O2)Oc2ccc(cc2Cl)[C@H]1O [Vancomycin]
fitness
Conditions | partner 0.1875 µg/mL | partner 0.375 µg/mL | partner 0.75 µg/mL
S. aureus DSM 20231 [1], first compound 0.125 µg/mL | 0.846 | 0.875 | 0.898
S. aureus DSM 20231 [1], first compound 0.25 µg/mL | 0.819 | 0.874 | 0.829
S. aureus Newman [2], first compound 0.125 µg/mL | 0.909 | 0.906 | 0.882
S. aureus Newman [2], first compound 0.25 µg/mL | 0.855 | 0.893 | 0.862

Conditions | Bliss interaction score
B. subtilis 168 [4] | -0.0288
S. aureus DSM 20231 [3] | 0.0943
S. aureus Newman [5] | -0.104
S. pneumoniae D39V | -0.0427

CC[C@H]1OC(=O)[C@H](C)[C@@H](O[C@H]2C[C@@](C)(OC)[C@@H](O)[C@H](C)O2)[C@H](C)[C@@H](O[C@@H]2O[C@H](C)C[C@H](N(C)C)[C@H]2O)[C@](C)(O)C[C@@H](C)CN(C)[C@H](C)[C@@H](O)[C@]1(C)O [Azithromycin] + CO/N=C(\C(=O)N[C@@H]1C(=O)N2C(C(=O)[O-])=C(C[N+]3(C)CCCC3)CS[C@H]12)c1csc(N)n1 [Cefepime]
fitness
Conditions | first compound 0.125 µg/mL | first compound 0.25 µg/mL | first compound 0.5 µg/mL
S. aureus DSM 20231 [1], partner 0.125 µg/mL | 0.842 | 0.858 | –
S. aureus DSM 20231 [1], partner 0.25 µg/mL | 0.818 | 0.838 | –
S. aureus DSM 20231 [1], partner 0.5 µg/mL | 0.833 | 0.843 | 0.565
S. aureus Newman [2], partner 0.125 µg/mL | 0.872 | 0.927 | 0.752
S. aureus Newman [2], partner 0.25 µg/mL | 0.799 | 0.872 | 0.669
S. aureus Newman [2], partner 0.5 µg/mL | 0.794 | 0.809 | 0.551

Conditions | Bliss interaction score
B. subtilis 168 [4] | 0.0866
S. aureus DSM 20231 [3] | 0.103
S. aureus Newman [5] | 0.0874
S. pneumoniae D39V | 0.112

CC[C@H]1OC(=O)[C@H](C)[C@@H](O[C@H]2C[C@@](C)(OC)[C@@H](O)[C@H](C)O2)[C@H](C)[C@@H](O[C@@H]2O[C@H](C)C[C@H](N(C)C)[C@H]2O)[C@](C)(O)C[C@@H](C)CN(C)[C@H](C)[C@@H](O)[C@]1(C)O [Azithromycin] + COc1cc(Cc2cnc(N)nc2N)cc(OC)c1OC [Trimethoprim]
fitness
Conditions | partner 0.125 µg/mL | partner 0.25 µg/mL | partner 0.5 µg/mL | partner 1 µg/mL
B. subtilis 168 [6], first compound 0.25 µg/mL | 0.669 | 0.541 | 0.452 | –
B. subtilis 168 [6], first compound 0.5 µg/mL | 0.471 | – | – | –
B. subtilis 168 [6], first compound 2 µg/mL | – | 0.0144 | 0.0327 | –
S. aureus DSM 20231 [1], first compound 0.125 µg/mL | 0.789 | 0.64 | 0.538 | 0.0427
S. aureus DSM 20231 [1], first compound 0.25 µg/mL | 0.782 | 0.658 | 0.562 | 0.03
S. aureus DSM 20231 [1], first compound 0.5 µg/mL | 0.38 | – | 0.292 | 0.0131

fitness, B. subtilis 168 [6], one replicate
Conditions | partner 0.1 µg/mL | partner 0.125 µg/mL | partner 0.2 µg/mL | partner 0.4 µg/mL | partner 1 µg/mL | partner 2 µg/mL
first compound 0.25 µg/mL | – | – | – | – | 0.106 | 0.0698
first compound 0.5 µg/mL | 0.365 | – | 0.257 | 0.111 | 0.051 | 0.0526
first compound 1 µg/mL | 0.144 | – | 0.0549 | 0.0194 | 0.0321 | 0.0311
first compound 2 µg/mL | 0.0143 | 0.0446 | 0.0451 | 0.0182 | – | –

Conditions | Bliss interaction score
B. subtilis 168 [4] | -0.194
S. aureus DSM 20231 [3] | 0.171
S. aureus Newman [5] | 0.175
S. pneumoniae D39V | -0.0811
